Experimental data: patent publication US10662204B2 (PFIZER INC., priority 2018, dated 2020)

Key:
[1] = molecular target: T1, GDP-loaded KRAS (1-169) G12C, C51S, C80L, C118S (Homo sapiens, UniProt P01116, C118S/C51S/C80L/G12C); experiment: Mass Spectrometry Reactivity Assay (MSRA): covalent adduct of compound and KRAS G12C, Percent Modification; assay type: binding; conditions: for MSRA (% modification) 5.0 μM 0.017 hr / MSRA (% modification) 5.0 μM 0.25 hr: 5.0 μM compound; for MSRA (% modification) 10 μM 0.25 hr / MSRA (% modification) 10 μM 0.50 hr: 10 μM compound
T1 construct: GDP-loaded KRAS (1-169) G12C, C51S, C80L, C118S
Description: Mass Spectrometry Reactivity Assay (MSRA)
Compounds presented in the present invention covalently bind to KRAS G12C using MSRA to detect a covalent adduct of the exemplary compound and KRAS G12C.
GDP-loaded KRAS (1-169) G12C, C51S, C80L, C118S were diluted in the protein assay buffer 25 mM Hepes pH7.5, 200 mM NaCl, 5% glycerol to concentration of 5 μM and 20 μl of protein was transferred into 96-well plate. Initial compound stocks were generated at concentrations 100-fold higher that their desired assay concentrations. See K-Ras(G12C) inhibitors allosterically control GTP affinity and effector interactions; Ostrem J M, Peters U, Sos M L, Wells J A, Shokat K M; Nature. 2013, Nov. 28; 503(7477):548-51.
Exemplary compounds dissolved in DMSO were diluted 100-fold into solution containing 20 μl of 5 μM KRAS protein in the 96-well plate to initiate the reaction. Mosquito (TPP Lab tech) liquid handling robot was used to add compounds to protein solution. Typical final concentration of the compounds was 5 μM or 10 μM. The plates were placed on a shaker for 1 min at RT, sealed and incubated at room temperature for specified time period. 5 μl of reaction mix was added to 10 μl of 0.2% formic acid stop solution and mixed well. Typical end points were 1, 15, 30, and 60 min.
Data were collected using Waters Acquity H-class UPLC system/Xevo G2-XS TOF mass spectrometer. The protein was injected in their liquid phase onto a Bruker Microtrap protein column TR1/15109/03. The following buffers were used to set LC gradient: Buffer A: 0.2% formic acid H2O; B: 0.2% formic acid CAN. The protein was eluted from the column using the following LC Gradient: 0-0.4 min, 10% B to 30% B; 0.4 min-2.4 min, to 90% B, 2.5 min, 10% B, 3 min, 10% B. Initial data analysis was performed using MaxEnt software right after data acquisition.
The standard auto processing function was used to define percentage of unmodified and modified KRAS protein using MexEnt software right after data acquisition. The highest peak was defined as 100% while smaller peak as assigned the number defined by autoprocessing function. The percent of modification corresponding to modified with exemplary compound and unmodified KRAS GDP-loaded KRAS (1-169) G12C, C51S, C80L, C118S were exported to Xcel data analysis software.
The percent of modified protein at the defined concentration of exemplary compound was calculated using the following formula: % mod=Num of modified peak/Sum of modified+unmodified. The resultant value defined as Percent Modification (PM) and an increase in PM reflects that the specific compound is better than other compounds at specified compound concentration at a given time point.

KRAS G12C = KRAS G12C (Homo sapiens, UniProt P01116, G12C); experiment: Cell Activity Assay: accumulation of GDP-bound KRAS G12C in MIAPaCa-2 cells (Raf-1 RBD capture, MSD readout); assay type: cell-based; design: endogenous in cells; host or cells: MIAPaCa-2; conditions: 6 hours, assay limit is 30.00
Description: Compounds presented in the present invention lead to the accumulation of the GDP bound Ras upon treatment of human cancer cell line.
The accumulation of the GDP-bound KRAS G12C in cellular environment was measured based on the principle that KRAS G12C only binds to its downstream kinase; Raf-1 (MAP Kinase Kinase Kinase), when in its active-GTP bound state. In this state, Ras binded to a domain of Raf-1 kinase referred to as the Ras Binding Domain (RBD).
MIAPaCa-2 cells were grown in RPMI 1640 medium (Gibco 11875) supplemented with 10% fetal bovine serum and 1% penicillin/streptomycin. Cells were seeded in 96-well tissue culture plates at a density of 30,000 cells/well and allowed to attach for 16-24 hours. Test compounds were prepared as a 10 mM stock in DMSO and serially diluted in 100% DMSO using a 3-fold dilution scheme. An intermediate 5× concentrated plate in complete growth medium was made and 25 μl/well was added to the 100 μl of cells for a final concentration of 0.3% DMSO. Each concentration of exemplary compound was tested in duplicate. The negative control wells were cells with control inhibitor at 10 μM, and the positive control wells were cells without drugs, DMSO only. Plates were incubated for 6 hours at 37° C., 5% CO2. Following treatment, cells were washed 3× with ice-cold PBS and 115 μl/well ice-cold 1× Assay/Lysis. Buffer with protease inhibitors was added (25 mM HEPES, pH 7.5, 150 mM NaCl, 1% NP-40, 10 mM MgCl2, 1 mM EDTA, 2% Glycerol). Following lysis samples were frozen at −80° C.
Raf-1 RBD (LJIC-1988A1) was diluted to 100 ng/well in PBS and 5 μl/well was spot coated onto MSD high bind SECTOR plates (L15XB). Plates were incubated at room temperature for 1 hour on an orbital shaker. Plates were washed with PBS/0.05% Tween-20 and 50 μl/well of thawed lysate samples were added, followed by 50 μl of 1% MSD Blocker A in PBS/0.05 Tween-20 (R93BA). Plates were incubated for 1 hour on an orbital shaker and washed with PBS/0.05% Tween-20. 25 μl/well of Anti-pan-Ras Antibody (Cell Biolabs 244003) diluted 1:3000 was added in 1% MSD Blocker A solution and plates were incubated for 1 hour on an orbital shaker and washed with PBS/0.05% Tween-20. SULFO-TAG goat anti-mouse secondary antibody (MSD R32AC) was diluted 1:500 in MSD Blocker A solution and added at 25 μL/well. Plates were incubated for 1 hour on an orbital shaker and washed with PBS/0.05% Tween-20. 150 μl/well of Read Buffer T (MSD R92TC) diluted 1:3 in H2O was added and plates were read on a Meso Scale Discovery Sector Imager S600.
KRAS signal was normalized to maximum inhibition and DMSO control values, and IC50 values were generated using a 4 parameter fit of the dose response curve. The decrease in IC50 reflects that the exemplary compound lead to a higher level of accumulation of GDP-bound KRAS G12C than another exemplary compounds at specific timepoint of treatment of cancer cell line.

MSRA (% modification) 5.0 μM 0.017 hr [1] [%] | IC50 (KRAS G12C) [µM] | MSRA (% modification) 5.0 μM 0.25 hr [1] [%] | MSRA (% modification) 10 μM 0.25 hr [1] [%] | MSRA (% modification) 10 μM 0.50 hr [1] [%] | SMILES
53 | 0.026 | – | – | – | C=CC(=O)N1CCN(c2nc(O[C@@H]3COC[C@H]3N(C)C)nc3c(Oc4c(Cl)c(F)cc5[nH]ncc45)nc(Cl)cc23)CC1 (racemic) [Example 30G, rac-1-[4-(6-chloro-8-[(5-chloro-6-fluoro-1H-indazol-4-yl)oxy]-2-{[(3S,4R)-4-(dimethylamino)oxolan-3-yl]oxy}pyrido[3,4-d]pyrimidin-4-yl)piperazin-1-yl]prop-2-en-1-one]
– | 0.461 | 25 | 54 | – | C=CC(=O)N1CCN(c2nc(OC[C@@]3(F)CCN(C)C3)nc3c(Oc4c(Cl)c(F)cc5[nH]ncc45)nccc23)CC1 [Example 15H, 1-[4-(8-[(5-chloro-6-fluoro-1H-indazol-4-yl)oxy]-2-{[(3R)-3-fluoro-1-methylpyrrolidin-3-yl]methoxy}pyrido[3,4-d]pyrimidin-4-yl)piperazin-1-yl]prop-2-en-1-one]
– | 11.8 | – | – | 11 | C=CC(=O)N1CCN(c2ncnc3c(Oc4c(C)ccc5[nH]ncc45)nccc23)CC1 [Example 01A, 1-(4-{8-[(5-methyl-1H-indazol-4-yl)oxy]pyrido[3,4-d]pyrimidin-4-yl}piperazin-1-yl)prop-2-en-1-one]
– | 3.74 | – | – | 36 | C=CC(=O)N1CCN(c2ncnc3c(Oc4c(C)ccc5[nH]ncc45)cc(Br)cc23)CC1 [Example 13C, 1-(4-{6-bromo-8-[(5-methyl-1H-indazol-4-yl)oxy]quinazolin-4-yl}piperazin-1-yl)prop-2-en-1-one]
– | 0.019 | 80 | – | – | C=CC(=O)N1CCN(c2nc(OCC3(F)CCN(C)CC3)nc3c(Oc4c(Cl)c(F)cc5[nH]ncc45)nc(Cl)cc23)CC1 [Example 15G, 1-(4-{6-chloro-8-[(5-chloro-6-fluoro-1H-indazol-4-yl)oxy]-2-[(4-fluoro-1-methylpiperidin-4-yl)methoxy]pyrido[3,4-d]pyrimidin-4-yl}piperazin-1-yl)prop-2-en-1-one]
– | 24.1 | – | – | 9 | C=CC(=O)N1CCN(c2ncnc3c(Oc4c(C)ccc5[nH]nc(C)c45)nccc23)CC1 [Example 17A, 1-(4-{8-[(3,5-dimethyl-1H-indazol-4-yl)oxy]pyrido[3,4-d]pyrimidin-4-yl}piperazin-1-yl)prop-2-en-1-one]
– | 13.3 | – | – | 30 | C=CC(=O)N1CCN(c2ncnc3c(Oc4c(C)c(Cl)cc5[nH]ncc45)nc(C#N)cc23)C[C@H]1C [Example 27A, 4-[(3R)-4-acryloyl-3-methylpiperazin-1-yl]-8-[(6-chloro-5-methyl-1H-indazol-4-yl)oxy]pyrido[3,4-d]pyrimidine-6-carbonitrile]
– | 0.62 | 26 | – | – | C=CC(=O)N1CCN(c2nc(O[C@@H]3CCOC3)nc3c(Oc4c(Cl)c(F)cc5[nH]ncc45)nccc23)CC1 [Example 02J, 1-(4-{8-[(5-chloro-6-fluoro-1H-indazol-4-yl)oxy]-2-[(3R)-tetrahydrofuran-3-yloxy]pyrido[3,4-d]pyrimidin-4-yl}piperazin-1-yl)prop-2-en-1-one]
– | 0.582 | 48 | – | – | C=CC(=O)N1CCN(c2nc(OC3CCN(C)CC3)nc3c(Oc4c(Cl)c(F)cc5[nH]ncc45)nccc23)CC1 [Example 16I, 1-(4-{8-[(5-chloro-6-fluoro-1H-indazol-4-yl)oxy]-2-[(1-methyl-piperidin-4-yl)oxy]pyrido [3,4-d]pyrimidin-4-yl}piperazin-1-yl)prop-2-en-1-one]
– | 3.1 | – | 43 | – | C=CC(=O)N1CCN(c2nc(OC[C@H]3CCCN3C)nc3c(Oc4c(C)ccc5[nH]ncc45)nccc23)CC1 [Example 09B, 1-[4-(8-[(5-methyl-1H-indazol-4-yl)oxy]-2-{[(2R)-1-methylpyrrolidin-2-yl]methoxy}pyrido[3,4-d]pyrimidin-4-yl)piperazin-1-yl]prop-2-en-1-one]
– | 5.92 | – | – | 18 | C=CC(=O)N1CCN(c2ncnc3c(Oc4c(C)ccc5[nH]ncc45)cccc23)CC1 [Example 01C, 1-(4-{8-[(5-methyl-1H-indazol-4-yl)oxy]quinazolin-4-yl}piperazin-1-yl)prop-2-en-1-one]
– | 8.14 | – | 34 | 55 | C=CC(=O)N1CCN(c2nc(OC[C@@H]3CCC(=O)N3)nc3c(Oc4c(C)ccc5[nH]ncc45)cccc23)CC1 [Example 11F, (5S)-5-[({4-(4-acryloylpiperazin-1-yl)-8-[(5-methyl-1H-indazol-4-yl)oxy]quinazolin-2-yl}oxy)methyl]pyrrolidin-2-one]
31 | 0.041 | – | – | – | C=CC(=O)N1CCN(c2nc(Oc3cccc4c3CCN(CC)C4)nc3c(Oc4c(C)ccc5[nH]ncc45)nccc23)CC1 [Example 31I, 1-(4-{2-[(2-ethyl-1,2,3,4-tetrahydro-isoquinolin-5-yl)oxy]-8-[(5-methyl-1H-indazol-4-yl)oxy]pyrido [3,4-d]pyrimidin-4-yl}piperazin-1-yl)prop-2-en-1-one]
78 | 0.019 | – | – | – | C=CC(=O)N1CCN(c2nc(Oc3ccc(F)c4c3CN(C)CC4)nc3c(Oc4c(Cl)c(F)cc5[nH]ncc45)nccc23)CC1 [Example 54I, 1-(4-{8-[(5-chloro-6-fluoro-1H-indazol-4-yl)oxy]-2-[(5-fluoro-2-methyl-1,2,3,4-tetrahydro-isoquinolin-8-yl)oxy]pyrido [3,4-d]pyrimidin-4-yl}piperazin-1-yl)prop-2-en-1-one]
11 | 1 | – | – | – | C=CC(=O)N1CCN(c2nc(O[C@@H]3CN(C)C[C@H]3OC)nc3c(Oc4c(C)ccc5[nH]ncc45)nccc23)CC1 [Example 28I]
